Experimental data taken from paper doi:10.1101/2024.08.19.608619, “Discovery of potent SARS-CoV-2 nsp3 macrodomain inhibitors uncovers lack of translation to cellular antiviral response” (bioRxiv, 2024).
Read-outs that look alike come from different tables or passages of the source.

Experiments:
SARS-CoV-2 nsp3-mac1 [1] = target: T1, SARS-CoV-2 nsp3-mac1 (Severe acute respiratory syndrome coronavirus 2, UniProt P0DTD1); assay: biochemical; set-up: SARS-CoV-2 nsp3 macrodomain TR-FRET single point, per cent inhibition, n=2
SARS-CoV-2 nsp3-mac1 [2] = target: T1, SARS-CoV-2 nsp3-mac1; assay: biochemical; type: biochemical; settings: SARS-CoV-2 nsp3 macrodomain TR-FRET single point
[3] = read-out: perc_inhibition_mean, batch_name=ASAP-0000203-002
[4] = read-out: perc_inhibition_mean, batch_name=ASAP-0000242-001
[5] = read-out: perc_inhibition_mean, batch_name=ASAP-0000243-001
[6] = read-out: perc_inhibition_mean, batch_name=ASAP-0000244-001
[7] = read-out: perc_inhibition_mean, batch_name=ASAP-0000245-001
[8] = read-out: perc_inhibition_mean, batch_name=ASAP-0000246-001
[9] = read-out: perc_inhibition_mean, batch_name=ASAP-0000247-001
[10] = read-out: perc_inhibition_mean, batch_name=ASAP-0000248-001
[11] = read-out: perc_inhibition_mean, batch_name=ASAP-0000249-001
[12] = read-out: perc_inhibition_mean, batch_name=ASAP-0000250-001
[13] = read-out: perc_inhibition_mean, batch_name=ASAP-0000251-001
[14] = read-out: perc_inhibition_mean, batch_name=ASAP-0000252-001
[15] = read-out: perc_inhibition_mean, batch_name=ASAP-0000253-001
[16] = read-out: perc_inhibition_mean, batch_name=ASAP-0000254-001
[17] = read-out: perc_inhibition_mean, batch_name=ASAP-0000255-001
[18] = read-out: perc_inhibition_mean, batch_name=ASAP-0000257-001

SMILES: COCc1cc(CNc2cc3c(O)ncnc3cn2)no1 [ASAP-0000202]
- inhibition at 50 µM (SARS-CoV-2 nsp3-mac1 [1]; read-out: perc_inhibition_mean, batch_name=ASAP-0000202-001): 3.31%
- perc_inhibition_mean (SARS-CoV-2 nsp3-mac1 [2]; concentration 50.0 uM): 3.308%

SMILES: Cc1ccc(-c2n[nH]cc2CNc2cnc3[nH]ncc3c2)o1 [ASAP-0000203]
- inhibition at 50 µM (SARS-CoV-2 nsp3-mac1 [1]; read-out: perc_inhibition_mean, batch_name=ASAP-0000203-001): 7.23%
- inhibition at 50 µM (SARS-CoV-2 nsp3-mac1 [1]; [3]): -21.6%
- inhibition at 100 µM (SARS-CoV-2 nsp3-mac1 [1]; [3]): -24.8%
- perc_inhibition_mean (SARS-CoV-2 nsp3-mac1 [2]; concentration 50.0 uM): 7.232%
- perc_inhibition_mean (SARS-CoV-2 nsp3-mac1 [2]; concentration 50.0 uM, n=2): -21.592%
- perc_inhibition_mean (SARS-CoV-2 nsp3-mac1 [2]; concentration 100.0 uM, n=2): -24.84%

SMILES: Cn1cnc2c(Nc3cncc(CN)c3)nc(N)nc21 [ASAP-0000242]
- inhibition at 50 µM (SARS-CoV-2 nsp3-mac1 [1]; [4]): -14.2%
- inhibition at 100 µM (SARS-CoV-2 nsp3-mac1 [1]; [4]): -28.3%
- perc_inhibition_mean (SARS-CoV-2 nsp3-mac1 [2]; concentration 50.0 uM): -14.217%
- perc_inhibition_mean (SARS-CoV-2 nsp3-mac1 [2]; concentration 100.0 uM): -28.278%

SMILES: CO[C@@]1(C(=O)O)CCN(C(=O)c2ncnc3[nH]ccc23)C1 [ASAP-0000243]
- inhibition at 50 µM (SARS-CoV-2 nsp3-mac1 [1]; [5]): -4.18%
- inhibition at 100 µM (SARS-CoV-2 nsp3-mac1 [1]; [5]): -3.71%
- perc_inhibition_mean (SARS-CoV-2 nsp3-mac1 [2]; concentration 50.0 uM): -4.181%
- perc_inhibition_mean (SARS-CoV-2 nsp3-mac1 [2]; concentration 100.0 uM): -3.71%

SMILES: C[C@]1(C(=O)O)CCCN1C(=O)c1ncnc2[nH]ccc12 [ASAP-0000244]
- inhibition at 50 µM (SARS-CoV-2 nsp3-mac1 [1]; [6]): -5.29%
- inhibition at 100 µM (SARS-CoV-2 nsp3-mac1 [1]; [6]): 5.67%
- perc_inhibition_mean (SARS-CoV-2 nsp3-mac1 [2]; concentration 50.0 uM): -5.285%
- perc_inhibition_mean (SARS-CoV-2 nsp3-mac1 [2]; concentration 100.0 uM): 5.665%

SMILES: FC(F)(F)Oc1ccccc1-c1ncnc2[nH]ccc12 [ASAP-0000245]
- inhibition at 50 µM (SARS-CoV-2 nsp3-mac1 [1]; [7]): -3.37%
- inhibition at 100 µM (SARS-CoV-2 nsp3-mac1 [1]; [7]): 2.12%
- perc_inhibition_mean (SARS-CoV-2 nsp3-mac1 [2]; concentration 50.0 uM): -3.369%
- perc_inhibition_mean (SARS-CoV-2 nsp3-mac1 [2]; concentration 100.0 uM): 2.117%

SMILES: Clc1cnc(OCCNc2ncnc3[nH]ccc23)c(Cl)c1 [ASAP-0000246]
- inhibition at 50 µM (SARS-CoV-2 nsp3-mac1 [1]; [8]): -4.3%
- inhibition at 100 µM (SARS-CoV-2 nsp3-mac1 [1]; [8]): -7.69%
- perc_inhibition_mean (SARS-CoV-2 nsp3-mac1 [2]; concentration 50.0 uM): -4.296%
- perc_inhibition_mean (SARS-CoV-2 nsp3-mac1 [2]; concentration 100.0 uM): -7.687%

SMILES: CO[C@@H](CNc1ncnc2[nH]ccc12)c1cccc(Cl)c1 [ASAP-0000247]
- inhibition at 50 µM (SARS-CoV-2 nsp3-mac1 [1]; [9]): 4.1%
- inhibition at 100 µM (SARS-CoV-2 nsp3-mac1 [1]; [9]): 14.2%
- perc_inhibition_mean (SARS-CoV-2 nsp3-mac1 [2]; concentration 50.0 uM): 4.096%
- perc_inhibition_mean (SARS-CoV-2 nsp3-mac1 [2]; concentration 100.0 uM): 14.175%

SMILES: O=C(NCc1ccc(Cl)cn1)c1ncnc2[nH]ccc12 [ASAP-0000248]
- inhibition at 50 µM (SARS-CoV-2 nsp3-mac1 [1]; [10]): -4.96%
- inhibition at 100 µM (SARS-CoV-2 nsp3-mac1 [1]; [10]): -2.57%
- perc_inhibition_mean (SARS-CoV-2 nsp3-mac1 [2]; concentration 50.0 uM): -4.958%
- perc_inhibition_mean (SARS-CoV-2 nsp3-mac1 [2]; concentration 100.0 uM): -2.568%

SMILES: OC[C@H](Cc1ccccc1)Nc1ncnc2[nH]ccc12 [ASAP-0000249]
- inhibition at 50 µM (SARS-CoV-2 nsp3-mac1 [1]; [11]): -1.29%
- inhibition at 100 µM (SARS-CoV-2 nsp3-mac1 [1]; [11]): 8.93%
- perc_inhibition_mean (SARS-CoV-2 nsp3-mac1 [2]; concentration 50.0 uM): -1.29%
- perc_inhibition_mean (SARS-CoV-2 nsp3-mac1 [2]; concentration 100.0 uM): 8.928%

SMILES: CN(Cc1nccn1Cc1ccccc1)c1ncnc2[nH]ccc12 [ASAP-0000250]
- inhibition at 50 µM (SARS-CoV-2 nsp3-mac1 [1]; [12]): -7.22%
- inhibition at 100 µM (SARS-CoV-2 nsp3-mac1 [1]; [12]): -8.82%
- perc_inhibition_mean (SARS-CoV-2 nsp3-mac1 [2]; concentration 50.0 uM): -7.218%
- perc_inhibition_mean (SARS-CoV-2 nsp3-mac1 [2]; concentration 100.0 uM): -8.82%

SMILES: Clc1cnc(N2CCN(c3ncnc4[nH]ccc34)CC2)c(Cl)c1 [ASAP-0000251]
- inhibition at 50 µM (SARS-CoV-2 nsp3-mac1 [1]; [13]): -2%
- inhibition at 100 µM (SARS-CoV-2 nsp3-mac1 [1]; [13]): -6.57%
- perc_inhibition_mean (SARS-CoV-2 nsp3-mac1 [2]; concentration 50.0 uM): -1.996%
- perc_inhibition_mean (SARS-CoV-2 nsp3-mac1 [2]; concentration 100.0 uM): -6.565%

SMILES: c1nc(NCc2cnc3sccn23)c2[nH]cnc2n1 [ASAP-0000252]
- inhibition at 50 µM (SARS-CoV-2 nsp3-mac1 [1]; [14]): -4.78%
- inhibition at 100 µM (SARS-CoV-2 nsp3-mac1 [1]; [14]): 5.65%
- perc_inhibition_mean (SARS-CoV-2 nsp3-mac1 [2]; concentration 50.0 uM): -4.782%
- perc_inhibition_mean (SARS-CoV-2 nsp3-mac1 [2]; concentration 100.0 uM): 5.65%

SMILES: Cc1cc(C(=O)Nc2[nH]nc3nc(O)ccc23)c2c(C)nn(C)c2n1 [ASAP-0000253]
- inhibition at 50 µM (SARS-CoV-2 nsp3-mac1 [1]; [15]): -6.17%
- inhibition at 100 µM (SARS-CoV-2 nsp3-mac1 [1]; [15]): -3.32%
- perc_inhibition_mean (SARS-CoV-2 nsp3-mac1 [2]; concentration 50.0 uM): -6.166%
- perc_inhibition_mean (SARS-CoV-2 nsp3-mac1 [2]; concentration 100.0 uM): -3.323%

SMILES: Cc1ccc(O)c(CNc2ncnc3[nH]cnc23)n1 [ASAP-0000254]
- inhibition at 50 µM (SARS-CoV-2 nsp3-mac1 [1]; [16]): 0.262%
- inhibition at 100 µM (SARS-CoV-2 nsp3-mac1 [1]; [16]): 6.28%
- perc_inhibition_mean (SARS-CoV-2 nsp3-mac1 [2]; concentration 50.0 uM): 0.262%
- perc_inhibition_mean (SARS-CoV-2 nsp3-mac1 [2]; concentration 100.0 uM): 6.284%

SMILES: O=C(NCc1cccc(F)n1)c1cnc2nc[nH]c(=O)c2c1 [ASAP-0000255]
- inhibition at 50 µM (SARS-CoV-2 nsp3-mac1 [1]; [17]): -14.8%
- inhibition at 100 µM (SARS-CoV-2 nsp3-mac1 [1]; [17]): -14.6%
- perc_inhibition_mean (SARS-CoV-2 nsp3-mac1 [2]; concentration 100.0 uM): -14.602%
- perc_inhibition_mean (SARS-CoV-2 nsp3-mac1 [2]; concentration 50.0 uM, n=2): -14.823%

SMILES: C(=C1CCCCC1)c1ncnc2[nH]ccc12 [ASAP-0000257]
- inhibition at 50 µM (SARS-CoV-2 nsp3-mac1 [1]; [18]): -5.46%
- inhibition at 100 µM (SARS-CoV-2 nsp3-mac1 [1]; [18]): 3.46%
- perc_inhibition_mean (SARS-CoV-2 nsp3-mac1 [2]; concentration 50.0 uM, n=2): -5.46%
- perc_inhibition_mean (SARS-CoV-2 nsp3-mac1 [2]; concentration 100.0 uM, n=2): 3.464%
